What was measured:
[1] = biological target: T1, RAS G12V (Homo sapiens, UniProt P01116, G12V); assay: Test Example 1: RAS G12V degradation activity by Cell ELISA in PA-TU-8902; assay type: cell-based; conditions: for DC50: 50% degradation concentration of RAS G12V, PA-TU-8902 cells, 24 hours, Cell ELISA, corrected with β-actin; for Dmax: PaTu 8902, degradation rate at the most active concentration, DMSO = 0%, Example No. 7 at 3 μM = 100%, PA-TU-8902, 24 hours
T1 construct: host or cells: PA-TU-8902 human pancreatic cancer cells
T1 sequence (P01116 1-188 isoform P01116-2 G12V): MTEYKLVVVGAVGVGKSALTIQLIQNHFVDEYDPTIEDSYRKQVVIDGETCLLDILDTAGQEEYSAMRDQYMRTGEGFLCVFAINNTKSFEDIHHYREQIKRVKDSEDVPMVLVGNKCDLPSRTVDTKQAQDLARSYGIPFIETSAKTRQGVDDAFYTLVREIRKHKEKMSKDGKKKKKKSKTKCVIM
Procedure: Test Example 1: Evaluation of RAS G12V Degradation Activity on Human KRAS G12V Mutant-Positive Pancreatic Cancer Line PA-TU-8902
The RAS G12V degradation activity of test compounds was evaluated by measuring the expression levels of RAS G12V by Cell ELISA.
PA-TU-8902 cells (DSMZ, ACC 179) were seeded at 36 μL per well on 384-well plates (from Greiner bio-one) to give 1.5×10^4 cells per well. As for the cell culture conditions, DMEM medium (from Sigma-Aldrich) containing 10% fetal bovine serum (from Cytiva) was used in the presence of 5% CO2 at 37° C.
The next day, the test compounds (10 points having final concentrations in the range of 3 μM to 0.1 nM), the compound of Example No. 7 having a final concentration of 3 μM as a positive control and dimethyl sulfoxide (DMSO), which was the solvent for the test compounds, as a negative control were diluted 100-fold with a fresh medium and were added at 4 μL per well. The cells were cultured for 24 hours.
The next day, the culture supernatant was removed, and 4% paraformaldehyde phosphate buffer (from FUJIFILM Wako Pure Chemical Corporation) was added at 20 μL per well. The plates were allowed to stand for 30 minutes at room temperature to thus immobilize the cells. Then, the supernatant was removed, and 0.1% Triton X-100 (from Amersham Biosciences)-containing Phosphate buffered saline (PBS) was added at 20 μL per well. After allowing to stand at room temperature for 10 minutes, the supernatant was removed. PBS was added at 25 μL per well, and the supernatant was removed to thus wash each well. The washing was performed twice in total. Subsequent washing operations were performed in the same manner. Next, the supernatant was removed, and 0.5% sodium dodecyl sulfate (SDS; from ThermoFisher Scientific)-containing PBS was added at 20 μL per well. After allowing to stand at room temperature for 10 minutes, the supernatant was removed by centrifugation of the plates. After washing with PBS, the supernatant was removed by centrifugation, and blocking solution (PVDF Blocking Reagent for Can Get Signal [from TOYOBO Co., Ltd.]) was added at 20 μL per well. After allowing to stand for 30 minutes at room temperature, the supernatant was removed by centrifugation and a solution obtained by diluting, as primary antibodies, anti-Ras (G12V Mutant Specific) antibody (Ras (G12V Mutant Specific) (D2H12) Rabbit mAb; from Cell Signaling Technology; 500-fold diluted) and […] (Anti-beta Actin antibody; from Abcam; 5,000-fold diluted) with Can Get Signal Solution 2 (from TOYOBO Co., Ltd.) was added at 15 μL per well. The plates were allowed to stand overnight at 4° C.
The next day, the supernatant was removed by centrifugation and washed with PBS. The supernatant was removed by centrifugation, a solution obtained by diluting, as secondary antibodies, anti-rabbit IgG antibody (IRDye 800CW Goat anti-Rabbit IgG; from LI-COR Biosciences) and anti-mouse IgG antibody (IRDye 680RD Donkey anti-Mouse IgG; from LI-COR Biosciences) 1,000-fold with Can Get Signal Solution 2 was added at 15 μL per well. After allowing to stand at room temperature for 1 hour, the supernatant was removed by centrifugation and washed with PBS. After removing the supernatant, the plates were dried with air at room temperature for 2 hours or more, and the 700 nm and 800 nm fluorescent signals were measured with Aerius (from LI-COR Biosciences).
The degradation rate of RAS G12V was calculated with the RAS G12V signaling value at the time of addition of DMSO taken as 0%, which was corrected with the signaling value of β-actin, and with the RAS G12V signaling value at the time of addition of the compound of Example No. 7 at a final concentration of 3 μM taken as 100%. […]

[2] = tested on: human KRAS G12V mutant-positive pancreatic cancer line PA-TU-8902; assay: Test Example 3: non-anchorage-dependent cell growth inhibition, spheroid 3D culture; assay type: cell-based; conditions: PaTu 8902, 144 h, PA-TU-8902 spheroid 3D culture, 6 days; for IC50: CellTiter Glo 2.0
Procedure: Test Example 3: Evaluation of Non-Anchorage-Dependent Cell Growth Inhibitory Effect on Human KRAS G12V Mutant-Positive Pancreatic Cancer Line PA-TU-8902
The non-anchorage-dependent cell growth inhibitory effect of test compounds was evaluated by spheroid 3D cell culture.
PA-TU-8902 cells were seeded on low-cell-adhesive round bottom 384-well plates (PrimeSurface: from Sumitomo Bakelite) at 36 µL/well to give 5×10^2 cells per well. The cell culture was performed under the same conditions as in Test Example 1.
The next day, the test compounds (8 to 10 points having final concentrations in the range of 3 μM to 0.1 nM) and DMSO, which was the solvent for the test compounds, as a negative control were diluted 100-fold with a fresh medium and were added at 4 μL per well. After culturing in the presence of 5% CO2 at 37° C. for 6 days, CellTiter Glo 2.0 (from Promega) was added at 20 μL per well. After stirring with a plate mixer (from FINEPCR) at normal temperature for 1 hour, the luminescent signals were measured with ARVO X3 (from PerkinElmer).
With the signaling value in treatment with DMSO taken as 0% inhibition and with the signaling value in the medium alone without cells taken as 100% inhibition, the 50% inhibitory concentration values (IC50) were calculated by Sigmoid-Emax nonlinear regression analysis. The inhibition rate at 30 nM was calculated for Example No. 17.

| DC50 [1] | Dmax [1] | IC50 [2] | SMILES | inhibition at 0.03 µM ([2]; 30 nM, CellTiter Glo 2.0, read-out: inhibition rate at 30 nM) |
| --- | --- | --- | --- | --- |
| 27 nM | 104% | 55 nM | CO[C@@H](C)COc1nc(N2CC(C#N)C2)c2cc(C3CC3)c(-c3c(C)c(F)cc4[nH]ncc34)c(OCc3ccc(C(=O)N4CCC5(CN(Cc6ccc7c(N8CCC(=O)NC8=O)nn(C)c7c6)C5)C4)cc3)c2n1 (atropisomer, axis not shown) [Example 13] |  |
| 26 nM | 78% | 68 nM | CO[C@@H](C)COc1nc(N2CC[C@H]2C(N)=O)c2cc(C3CC3)c(-c3c(C)c(F)cc4[nH]ncc34)c(OCc3ccc(CN4CCN(Cc5ccc6c(N7CCC(=O)NC7=O)nn(C)c6c5)C[C@@H]4C)cc3)c2n1 (atropisomer, axis not shown) [Example 19] |  |
| 38 nM | 103% | 55 nM | Cc1c(F)cc2[nH]ncc2c1-c1c(C2CC2)cc2c(N3CC[C@H]3C(N)=O)nc(OC[C@@H]3CCN(C)C3)nc2c1OCc1ccc(C(=O)N2CCN(Cc3ccc4c(N5CCC(=O)NC5=O)nn(C)c4c3)C[C@@H]2C)cc1 (atropisomer, axis not shown) [Example 7] |  |
| 9 nM | 70% |  | CO[C@@H](C)COc1cc(OC2CN(C(=O)NCCN(C)C)C2)c2cc(C3CC3)c(-c3c(C)c(F)cc4[nH]ncc34)c(OCc3ccc(C(=O)N4CCN(Cc5ccc6c(c5)n(C)c(=O)n6C5CCC(=O)NC5=O)C[C@@H]4C)cc3)c2n1 (stereo partly drawn) [Example 17] | 50% |
| 92 nM | 85% | 139 nM | CO[C@@H](C)COc1nc(N2CC(C#N)C2)c2cc(C3CC3)c(-c3c(C)c(F)cc4[nH]ncc34)c(OCc3ccc(C(=O)N4CC[C@H](CN(C)Cc5ccc6c(N7CCC(=O)NC7=O)nn(C)c6c5)C4)cc3)c2n1 (atropisomer, axis not shown) [Example 15] |  |
| 5 nM | 97% | 15 nM | CO[C@@H](C)COc1nc(N2CC[C@H]2C(N)=O)c2cc(C3CC3)c(-c3c(C)c(F)cc4[nH]ncc34)c(OCc3ccc(C(=O)N4CCN(Cc5ccc6c(N7CCC(=O)NC7=O)nn(C)c6c5)C[C@@H]4C)cc3)c2n1 (atropisomer, axis not shown) [Example 5, (2S)-1-((7 M)-6-cyclopropyl-8-((4-[(2S)-4-{[3-(2,4-dioxo-1,3-diazinan-1-yl)-1-methyl-1H-indazol-6-yl]methyl)-2-methylpiperazine-1-carbonyl]phenyl)methoxy)-7-(6-fluoro-5-methyl-1H-indazol-4-yl)-2-[(2S)-2-methoxypropoxy]quinazolin-4-yl}azetidine-2-carboxyamide] |  |

Reference: US20260042771A1, “HETEROCYCLIC COMPOUND FOR INDUCING DEGRADATION OF G12V MUTANT KRAS PROTEIN” (Astellas Pharma Inc., priority 2022, published 2026)
